# Assay results from patent US7056940B2, “Insecticidal 3-(2,6-disubstituted phenyl)-5-[5-arylthien-2-yl]-1,2,4-triazoles” (Dow AgroSciences LLC, priority 2001, dated 2006).
# What was measured:
# Format in all cases: in vivo
# [1] = test system: Tobacco Budworm (Heliothis virescens); experiment: Insecticidal test for tobacco budworm, treated cotton cotyledon leaf disc; set-up: key: A: 90–100; B: 80–89; C: 70–79; D: 60–69; E: 50–59; F: less than 50; G: Inactive; conditions: cotton cotyledon leaf-dip, 2nd instar larvae, 5 days
# Text: (§1) The compounds are useful for reducing populations of insects and mites and are useful in a method of inhibiting an insect or mite population which comprises applying to a locus of the insect or mite an effective insect- or mite-inactivating amount of a compound of formula (1). The “locus” of insects or mites is a term used herein to refer to the environment in which the insects or mites live or where their eggs are present, including the air surrounding them, the food they eat, or objects which they contact. For example, insects or mites which eat or contact edible or ornamental plants can be controlled by applying the active compound to plant parts such as the seed, seedling, or cutting which is planted, the leaves, stems, fruits, grain, or roots, or to the soil in which the roots are growing. It is contemplated that the compounds might also be useful to protect textiles, paper, stored grain, seeds, domesticated animals, buildings or human beings by applying an active compound to or near such objects. The term “inhibiting an insect or mite” refers to a decrease in the numbers of living insects or mites, or a decrease in the number of viable insect or mite eggs. The extent of reduction accomplished by a compound depends, of course, upon the application rate of the compound, the particular compound used, and the target insect or mite species. At least an inactivating amount should be used. The terms “insect-inactivating amount” and “mite-inactivating amount” are used to describe the amount, which is sufficient to cause a measurable reduction in the treated insect or mite population. Generally an amount in the range from about 1 to about 1000 ppm by weight active compound is used. For example, insects and mites which can be inhibited include, but are not limited to: • Lepidoptera—Heliothis spp., Helicoverpa spp., Spodoptera spp., Mythimna unipuncta, Agrotis ipsilon, Earias spp., Euxoa auxiliaris, Trichoplusia ni, Anticarsia gemmatalis, Rachiplusia nu, Plutella xylostella, Chilo spp., Scirpophaga incertulas, Sesamia inferens, Cnaphalocrocis medinalis, Ostrinia nubilalis, Cydia pomonella, Carposina niponensis, Adoxophyes orana, Archips argyrospilus, Pandemis heparana, Epinotia aporema, Eupoecilia ambiguella, Lobesia botrana, Polychrosis viteana, Pectinophora gossypiella, Pieris rapae, Phyllonorycter spp., Leucoptera malifoliella, Phyllocnisitis citrella • Coleoptera—Diabrotica spp., Leptinotarsa decemlineata, Oulema oryzae, Anthonomus grandis, Lissorhoptrus oryzophilus, Agriotes spp., Melanotus communis, Popillia japonica, Cyclocephala spp., Tribolium spp. • Homoptera—Aphis spp., Myzus persicae, Rhopalosiphum spp., Dysaphis plantaginea, Toxoptera spp., Macrosiphum euphorbiae, Aulacorthum solani, Sitobion avenae, Metopolophium dirhodum, Schizaphis graminum, Brachycolus noxius, Nephotettix spp., Nilaparvata lugens, Sogatella furcifera, Laodelphax striatellus, Bemisia tabaci, Trialeurodes vaporariorum, Aleurodes proletella, Aleurothrixus floccosus, Quadraspidiotus perniciosus, Unaspis yanonensis, Ceroplastes rubens, Aonidiella aurantii • Hemiptera—Lygus spp., Eurygaster maura, Nezara viridula, Piezodorus guildingi, Leptocorisa varicornis • Thysanoptera—Frankliniella occidentalis, Thrips spp., Scirtothrips dorsalis • Isoptera—Reticulitermes flavipes, Coptotermes formosanus • Orthoptera—Blattella germanica, Blatta orientalis, Gryllotalpa spp. • Diptera—Liriomyza spp., Musca domestica, Aedes spp., Culex spp., Anopheles spp. • Hymenoptera—Iridomyrmex humilis, Solenopsis spp., Monomorium pharaonis, Atta spp., Pogonomyrmex spp., Camponotus spp. • Siphonaptera—Ctenophalides spp., Pulex irritans • Acarina—Tetranychus spp., Panonychus spp., Eotetranychus carpini, Phyllocoptruta oleivora, Aculus pelekassi, Brevipalpus phoenicis, Boophilus spp., Dermacentor variabilis, Rhipicephalus sanguineus, Amblyomma americanum, Ixodes spp., Notoedres cati, Sarcoptes scabiei, Dermatophagoides spp. […]
# [2] = test system: Sweetpotato Whitefly (Bemisia tabacia); experiment: Insecticidal test for sweetpotato whitefly, spray on cotton plants; set-up: key: A: 90–100; B: 80–89; C: 70–79; D: 60–69; E: 50–59; F: less than 50; G: Inactive; conditions: 200 ppm spray, 13 days, large nymphs
# Protocol: Insecticidal Test for Sweetpotato Whitefly (Bemisia tabacia)
# Four mg of each test compound was dissolved by adding 4 mL of a 90:10 acetone:ethanol solvent mixture to the vial containing the sample compound. This solution was added to 16 mL of water containing 0.05% Tween 20 surfactant to produce 20 mL of an 200 ppm spray solution.
# Five-week-old cotton plants reared in a greenhouse were stripped of all foliage except for the two uppermost true leaves that were greater than 5 cm in diameter. These plants were then placed into a laboratory colony of whiteflies for two days for oviposition by the colony females. All whiteflies were then removed from the test plants with pressurized air. The spray solution was then applied to the test plants with a hand-held syringe fitted with hollow cone nozzle. One mL spray solution was applied to each leaf top and bottom for a total of 4 mL per plant. Four replications of each test compound utilized a total of 16 mL spray solution. Plants were air dried and then placed in a holding chamber (28° C. and 60% RH) for 13 days. Compound efficacy was evaluated by counting, under an illuminated magnifying glass, the number of large nymphs (3rd–4th instar) per leaf.
# Percent control based on reduction of large nymphs of a test compound compared to solution-only (no test compound) sprayed plants is reported in Tables 1–4.
# [3] = test system: Cabbage Looper (Trichoplusia ni); experiment: Insecticidal test for cabbage looper, treated cabbage leaf disc; set-up: key: A: 90–100; B: 80–89; C: 70–79; D: 60–69; E: 50–59; F: less than 50; G: Inactive; conditions: cabbage leaf-dip, 2nd instar larvae, 5 days
# Text: as §1
# [4] = test system: Cotton Aphid (Aphis gossypii); experiment: Insecticidal test for cotton aphid, spray on infested squash cotyledons; conditions: 50 ppm spray, 3 days
# Protocol: Insecticidal Test for Cotton Aphid (Aphis gossypii)
# To prepare spray solutions, 1 mg of each test compound was dissolved into 1 mL of a 90:10 acetone:ethanol solvent. This 1 mL of chemical solution was added to 19 mL of water containing 0.05% Tween 20 surfactant to produce a 50 ppm spray solution.
# Squash cotyledons were infested with cotton aphid (all life stages) 16–20 hours prior to application of spray solution. The solution was sprayed on both sides of each infested squash cotyledon (0.5 mL×2 each side) with a sweeping action until runoff. The plants were allowed to air dry and held for 3 days in a controlled room at 26° C. and 40% RH after which time the test was graded. Grading was by actual count using a dissecting microscope and comparison of test counts to the untreated check. Results are given in Tables 1–4 as percent control based on population reduction versus the untreated.
# [5] = test system: Beet Armyworm (Spodoptera exigua); experiment: Insecticidal test for beet armyworm, treated lepidopteran diet; set-up: key: A: 90–100; B: 80–89; C: 70–79; D: 60–69; E: 50–59; F: less than 50; G: Inactive; conditions: on diet surface, second-instar larvae, 5 days
# Text: as §1
# [6] = test system: Two-spotted Spider Mite (Tetranychus urticae); experiment: Insecticidal test for two-spotted spider mite, ovicide method; set-up: key: A: 90–100; B: 80–89; C: 70–79; D: 60–69; E: 50–59; F: less than 50; G: Inactive; conditions: cotton leaf discs, 6 days
# Protocol: Insecticidal Test for Two-spotted Spider Mite (Tetranychus urticae)
# Ten adult female two-spotted spider mites were placed on eight 2.2 cm leaf discs of cotton leaf, allowed to oviposit over 24 hours, and thereafter removed. […] Discs were placed on an agar substrate and held at 24° C. and 90% RH for 6 days.
Compound,TBW: activity at 400 ppm against tobacco budworm (% control rating) [1],WF: activity at 200 ppm against whitefly (% control rating) [2],CL: activity at 400 ppm against cabbage looper (% control rating) [3],CA: activity at 50 ppm against cotton aphid (% control rating) [4],BAW: activity at 400 ppm against beet armyworm (% control rating) [5],SM: activity against two-spotted spider mite (% control rating) [6]
Cn1nc(-c2c(F)cccc2Cl)nc1-c1sc(-c2ccc(Br)cc2)c(Cl)c1Cl,G,E (50–59),A (90–100),C (70–79),A (90–100),G
Cn1nc(-c2c(F)cccc2Cl)nc1-c1sc(-c2ccc(Br)cc2)cc1Cl,A (90–100),G,A (90–100),B (80–89),A (90–100),A (90–100)
Cc1cc(-c2cccc(OC(F)(F)F)c2)sc1-c1nc(-c2c(F)cccc2Cl)nn1C,G,F (less than 50),A (90–100),B (80–89),G,A (90–100)
Cc1cc(-c2ccc(F)cc2)sc1-c1nc(-c2c(F)cccc2Cl)nn1C,F (less than 50),G,A (90–100),B (80–89),D (60–69),A (90–100)
Cc1cc(-c2ccc(Cl)c(F)c2)sc1-c1nc(-c2c(F)cccc2Cl)nn1C,B (80–89),G,A (90–100),A (90–100),A (90–100),A (90–100)
Cc1cc(-c2ccc(Cl)cc2F)sc1-c1nc(-c2c(F)cccc2Cl)nn1C,F (less than 50),G,A (90–100),C (70–79),A (90–100),A (90–100)
Cc1cc(-c2cccc(C(F)(F)F)c2F)sc1-c1nc(-c2c(F)cccc2Cl)nn1C,D (60–69),G,A (90–100),D (60–69),A (90–100),A (90–100)
Cc1cc(-c2ccc3c(c2)COC3)sc1-c1nc(-c2c(F)cccc2Cl)nn1C,G,G,A (90–100),D (60–69),B (80–89),C (70–79)
COCCOc1cccc(-c2cc(C)c(-c3nc(-c4c(F)cccc4Cl)nn3C)s2)c1,F (less than 50),G,G,B (80–89),F (less than 50),C (70–79)
Cc1cc(-c2ccc(OC(C)C)cc2)sc1-c1nc(-c2c(F)cccc2Cl)nn1C,G,–,B (80–89),D (60–69),D (60–69),A (90–100)
Cc1cc(-c2ccc(OC(F)(F)C(F)Cl)cc2)sc1-c1nc(-c2c(F)cccc2Cl)nn1C (centres unmarked),A (90–100),F (less than 50),A (90–100),D (60–69),A (90–100),A (90–100)
Cc1c(-c2nc(-c3c(F)cccc3Cl)nn2C)csc1-c1ccc(SCF)cc1,G,F (less than 50),G,B (80–89),B (80–89),–
Cc1sc(-c2ccc(C(F)(F)F)cc2F)c(C)c1-c1nc(-c2c(F)cccc2Cl)nn1C,G,–,A (90–100),B (80–89),A (90–100),–
